{"source": "PubChem BioAssay AID1259411", "about": "(Chemical Carcinogenesis Research Information System (CCRIS), 2018)", "system": "rodent carcinogenicity bioassays, tumor incidence", "test": "CCRIS carcinogenicity studies", "method_in_brief": "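NCI-built, expert-reviewed records of carcinogenicity and related test outcomes (mutagenicity, tumor promotion/inhibition) compiled from published and report sources, historical span 1985-2011, not updated.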", "note": "The source made the active and inactive calls. How the calls were made is not given here.", "data": [{"smiles": "C1COCCO1", "values": [{"measurement": "carcinogen call", "setting": "Species: MOUSE, Strain/Sex: B6C3F1/FEMALE, Route: ORAL, Dose: 0, 0.5, 1.0% (V/V) IN DRINKING WATER, Dose: 0, 0.5, 1.0% (V/V) IN DRINKING WATER, Tumor Site: Type of Lesion: LIVER: HEPATOCELLULAR CARCINOMA OR ADENOMA", "value": "active; positive"}, {"measurement": "carcinogen call", "setting": "Species: MOUSE, Strain/Sex: B6C3F1/MALE, Route: ORAL, Dose: 0, 0.5, 1.0% (V/V) IN DRINKING WATER, Dose: 0, 0.5, 1.0% (V/V) IN DRINKING WATER, Tumor Site: Type of Lesion: LIVER: HEPATOCELLULAR CARCINOMA OR ADENOMA", "value": "active; positive"}, {"measurement": "carcinogen call", "setting": "Species: MOUSE, Strain/Sex: BDF1/FEMALE, Route: ORAL, Dose: 0, 500, 2000, 8000 PPM IN DRINKING WATER FOR 104 WK (STUDY DURATION: 105 WK), Dose: 0, 500, 2000, 8000 PPM IN DRINKING WATER FOR 104 WK (STUDY DURATION: 105 WK), Tumor Site: Type of Lesion: LIVER: HEPATOCELLULAR ADENOMA, HEPATOCELLULAR CARCINOMA", "value": "active; positive"}, {"measurement": "carcinogen call", "setting": "Species: MOUSE, Strain/Sex: BDF1/MALE, Route: ORAL, Dose: 0, 500, 2000, 8000 PPM IN DRINKING WATER FOR 104 WK (STUDY DURATION: 105 WK), Dose: 0, 500, 2000, 8000 PPM IN DRINKING WATER FOR 104 WK (STUDY DURATION: 105 WK), Tumor Site: Type of Lesion: LIVER: HEPATOCELLULAR ADENOMA, HEPATOCELLULAR CARCINOMA", "value": "active; positive"}, {"measurement": "carcinogen call", "setting": "Species: RAT, Strain/Sex: F344/FEMALE, Route: ORAL, Dose: 0, 200, 1000, 5000 PPM IN DRINKING WATER FOR 104 WK (STUDY DURATION: 105 WK), Dose: 0, 200, 1000, 5000 PPM IN DRINKING WATER FOR 104 WK (STUDY DURATION: 105 WK), Tumor Site: Type of Lesion: NASAL CAVITY: TUMOR, LIVER: HEPATOCELLULAR ADENOMA, HEPATOCELLULAR CARCINOMA, MAMMARY GLAND: TUMOR, Tumor Site: Type of Lesion: NASAL CAVITY: TUMOR, LIVER: HEPATOCELLULAR ADENOMA, HEPATOCELLULAR CARCINOMA, MAMMARY GLAND: TUMOR", "value": "active; positive"}, {"measurement": "carcinogen call", "setting": "Species: RAT, Strain/Sex: F344/MALE, Route: ORAL, Dose: 0, 200, 1000, 5000 PPM IN DRINKING WATER FOR 104 WK (STUDY DURATION: 105 WK), Dose: 0, 200, 1000, 5000 PPM IN DRINKING WATER FOR 104 WK (STUDY DURATION: 105 WK), Tumor Site: Type of Lesion: NASAL CAVITY: TUMOR, LIVER: HEPATOCELLULAR ADENOMA, HEPATOCELLULAR CARCINOMA, PERITONEUM: MESOTHELIOMA, SUBCUTIS: FIBROM, Tumor Site: Type of Lesion: NASAL CAVITY: TUMOR, LIVER: HEPATOCELLULAR ADENOMA, HEPATOCELLULAR CARCINOMA, PERITONEUM: MESOTHELIOMA, SUBCUTIS: FIBROM", "value": "active; positive"}, {"measurement": "carcinogen call", "setting": "Species: RAT, Strain/Sex: OSBORNE-MENDEL/FEMALE, Route: ORAL, Dose: 0, 0.5, 1.0% (V/V) IN DRINKING WATER, Dose: 0, 0.5, 1.0% (V/V) IN DRINKING WATER, Tumor Site: Type of Lesion: NASAL TURBINATES: SQUAMOUS CELL CARCINOMA, LIVER: HEPATOCELLULAR ADENOMA", "value": "active; positive"}, {"measurement": "carcinogen call", "setting": "Species: RAT, Strain/Sex: OSBORNE-MENDEL/MALE, Route: ORAL, Dose: 0, 0.5, 1.0% (V/V) IN DRINKING WATER, Dose: 0, 0.5, 1.0% (V/V) IN DRINKING WATER, Tumor Site: Type of Lesion: NASAL TURBINATES: SQUAMOUS CELL CARCINOMA", "value": "active; positive"}, {"measurement": "carcinogen call", "setting": "Species: RAT, Strain/Sex: SHERMAN/MALE,FEMALE, Route: ORAL, Dose: 0.01, 0.1, 1.0% IN DRINKING WATER FOR UP TO 716 D, Dose: 0.01, 0.1, 1.0% IN DRINKING WATER FOR UP TO 716 D, Tumor Site: Type of Lesion: LIVER: HEPATOCELLULAR CARCINOMA, CHOLANGIOMA", "value": "active; positive"}, {"measurement": "carcinogen call", "setting": "Species: RAT, Strain/Sex: SPRAGUE-DAWLEY/MALE, Route: ORAL, Dose: 0.75, 1.0, 1.4, 1.8% IN DRINKING WATER FOR 13 MO, Dose: 0.75, 1.0, 1.4, 1.8% IN DRINKING WATER FOR 13 MO, Tumor Site: Type of Lesion: NASAL CAVITY: SQUAMOUS CELL CARCINOMA, ADENOCARCINOMA, LIVER: HEPATOMA, HEPATOCELLULAR CARCINOMA", "value": "active; positive"}, {"measurement": "carcinogen call", "setting": "Species: RAT, Strain/Sex: WISTAR/MALE, Route: ORAL, Dose: 1% IN DRINKING WATER FOR 63 WK, Tumor Site: Type of Lesion: LIVER: NEOPLASTIC NODULE, HEPATOCELLULAR CARCINOMA", "value": "active; positive"}]}, {"smiles": "O=NC(=O)CCNCCO", "values": [{"measurement": "carcinogen call", "setting": "Species: RAT, Strain/Sex: F344/FEMALE, Route: ORAL, Dose: 0, 50 MG/L DRINKING WATER 5 D/WK FOR 50 WK (TOTAL DOSE 250 MG) (STUDY DURATION: LIFESPAN), Tumor Site: Type of Lesion: ESOPHAGUS: CARCINOMA, PAPILLOMA, TONGUE: CARCINOMA, PAPILLOMA", "value": "active; positive"}]}, {"smiles": "CON(C)C(=O)Nc1ccc(Cl)c(Cl)c1", "values": [{"measurement": "carcinogen call", "setting": "Species: Mouse, Strain/Sex: CD-1/Female (80/Group), Route: Oral, Dose: 0, 50, 150, 1500 ppm of 97% linuron in diet for 24 mo, study duration 24 mo, Dose: 0, 50, 150, 1500 ppm of 97% linuron in diet for 24 mo, study duration 24 mo, Tumor Site: Type of Lesion: Liver: hepatocellular adenomas (high dose only)", "value": "active; positive"}, {"measurement": "carcinogen call", "setting": "Species: Mouse, Strain/Sex: CD-1/Male (80/Group), Route: Oral, Dose: 0, 50, 150, 1500 ppm of 97% linuron in diet for 24 mo, study duration 24 mo, Dose: 0, 50, 150, 1500 ppm of 97% linuron in diet for 24 mo, study duration 24 mo", "value": "inactive; negative"}, {"measurement": "carcinogen call", "setting": "Species: Rat, Strain/Sex: Charles River CD/Female (70/Group), Route: Oral, Dose: 0, 50, 125, 625 ppm 97% linuron in diet for 24 mo, study duration 24 mo, Dose: 0, 50, 125, 625 ppm 97% linuron in diet for 24 mo, study duration 24 mo", "value": "inactive; negative"}, {"measurement": "carcinogen call", "setting": "Species: Rat, Strain/Sex: Charles River CD/Male (70/Group), Route: Oral, Dose: 0, 50, 125, 625 ppm 97% linuron in diet for 24 mo, study duration 24 mo, Dose: 0, 50, 125, 625 ppm 97% linuron in diet for 24 mo, study duration 24 mo, Tumor Site: Type of Lesion: Testes: Interstitial cell adenoma", "value": "active; positive"}, {"measurement": "carcinogen call", "setting": "Species: Rat, Strain/Sex: Crl:CD (SD)BR /Male (25/Group), Route: Oral, Dose: 0 (control diet), control diet for 18 mo followed by 625 ppm linuron for 6 mo, control diet for 1 yr followed by 625 ppm, Dose: 0 (control diet), control diet for 18 mo followed by 625 ppm linuron for 6 mo, control diet for 1 yr followed by 625 ppm, Tumor Site: Type of Lesion: Testes: interstitial cell tumors (0/25, 2/25 (6-mo. feed), 6/25 (12 mo feed))", "value": "active; positive"}]}, {"smiles": "NCC(=O)O", "values": [{"measurement": "carcinogen call", "setting": "Species: RAT, Strain/Sex: F344/FEMALE, Route: ORAL, Dose: 0, 2.5, 5% IN DRINKING WATER FOR 108 WK (STUDY DURATION: 108 WK), Dose: 0, 2.5, 5% IN DRINKING WATER FOR 108 WK (STUDY DURATION: 108 WK)", "value": "inactive; negative"}, {"measurement": "carcinogen call", "setting": "Species: RAT, Strain/Sex: F344/MALE, Route: ORAL, Dose: 0, 2.5, 5% IN DRINKING WATER FOR 108 WK (STUDY DURATION: 108 WK), Dose: 0, 2.5, 5% IN DRINKING WATER FOR 108 WK (STUDY DURATION: 108 WK)", "value": "inactive; negative"}]}, {"smiles": "C#C[C@]1(OC(C)=O)CC[C@H]2[C@@H]3CCC4=C[C@@H](OC(C)=O)CC[C@@H]4[C@H]3CC[C@@]21C", "values": [{"measurement": "carcinogen call", "setting": "Species: MOUSE, Route: ORAL, Tumor Site: Type of Lesion: MAMMARY GLAND", "value": "active; positive"}, {"measurement": "carcinogen call", "setting": "Species: RAT, Route: ORAL, Tumor Site: Type of Lesion: MAMMARY GLAND", "value": "active; positive"}]}]}
